From patent US5059692A, “Novel compounds exhibiting a vasodilating activity and inhibitory activity for platelet aggregation” (priority 1989, dated 1991)

Assays:
rabbit mesenteric artery = test: Vasorelaxant Effect (V.R., ED50), KCl-precontracted mesenteric artery strips; conditions: Oryctolagus cuniculus; rabbit superior mesenteric artery helical strips, precontracted with 20 mM KCl, 37°±0.5° C., cumulative addition
Procedure: Vasorelaxant Effect (V.R., ED50)
Male albino rabbits were killed by exanguination.
The vascular strips were vertically suspended in an organ bath filled with a Krebs-Henseleit solution the temperature of which was maintained at 37°±0.5° C. A mixture of 95% O2 -5% CO2 was constantly bubbled through the bicarbonate-based solution in the organ bath. Mechanical responses of the rabbit mesenteric artery evoked by a high concentration of KCl were measured isometrically using the force-displacement transducer.
After obtaining a reproducible response to KCl, the preparations were precontracted with 20 mM KCl and then relaxed by the cumulative addition of the compounds. The ED50 value was read from a plot of the percentage of the relaxing response (maximum contractile response to KCl was taken as 100%) vs. the log concentration of the compounds.

washed platelets = test: Inhibition of Platelets Aggregation (P.A.IC50), collagen-induced, washed platelets, turbidmetric method; assay type: cell-based; conditions: Platelet, human washed platelets, 37° C., 2 min preincubation
Procedure: Inhibition of Platelets Aggregation (P.A.IC50)
Preparation of washed platelets (centrifugation method) Blood drawn from healthy human volunteers was anticoagulated with 1/10 volume of 0.38% sodium citrate. Platelets-rich plasma (PRP) was obtained by centrifugation of whole blood at 700× G for 10 minutes. The resulting PRP was then centrifuged at 1500× G for 10 minutes in the presence of 1/6 volume of ACD solution (2.2% of sodium citrate, 0.8% of citric acid and 2.2% of glucose), and the pellet was suspended with the modified HEPES-Tyrode solution (135 mM NaCl, 2.7 mM KCl, 1 mM MgCl2, 0.1% glucose, and 20 mM HEPES; pH 7.4).
After the platelet suspension was centrifuged again at 1500× G for 5 minutes with 1/6 volume of the ACD solution, the pellet was resuspended with the modified HEPES-Tyrode solution. Then the washed platelet suspension (=300,000 platelets/μl) was obtained.
Measurement of Platelet Aggregation (Turbidmetric Method)
Platelet aggregation was studied by the turbidmetric method with an 4 ch. aggregometer (HEMA tracer 601; Nikoh Bioscience Co., Japan). Test sample (3 μl, appropriate concentration) or vehicle (3 μl) was added to 270 μl of the platelet suspension and incubated at 37° C. with stirring for 2 minutes before the addition of 30 μl collagen ([…]).
Estimation of Inhibitory Action
The extent of aggregation was expressed by the maximum change of light transmission expressed as a percentage, taking the difference between light transmission for the platelet suspension and platelet-poor-plasma as a value of 100%. Percent inhibition of aggregation by a test compound was calculated by dividing the percent aggregation by that observed in the control run, then multiplying by 100. IC50 values were expressed as the concentrations of test compounds which produced 50% inhibition of the platelet aggregation.

| EC50 (rabbit mesenteric artery) [µM] | IC50 (washed platelets) [µM] | Structure (SMILES) |
| --- | --- | --- |
| 20 | 0.023 | COC(=O)c1sc2c(c1N)c1ccccc1c(=O)n2-c1ccccc1 [compound 1, Methyl 1-amino-4,5-dihydro-5-oxo-4-phenyl-thieno[2,3-c]isoquinoline-2-carboxylate] |
| 4.6 | 0.56 | COC(=O)c1sc2c(c1N)c1ccccc1c(=O)n2-c1ccccc1C [compound 2, Methyl 1-amino-4,5-dihydro-4-(2-methylphenyl)-5-oxo-thieno[2,3-c]isoquinoline-2-carboxylate] |
| – | 0.26 | COC(=O)c1sc2c(c1N)c1ccsc1c(=O)n2-c1ccccc1 [compound 3, Methyl 1-amino-4,5-dihydro-5-oxo-4-phenyl-dithieno[2,3-b:3',2'-d]pyridine-2-carboxylate] |
| 5.7 | 0.1 | COC(=O)c1sc2c(c1N)c1ccccc1c(=O)n2-c1ccccc1Cl [compound 4, Methyl 1-amino-4-(2-chlorophenyl)-4,5-dihydro-5-oxo-thieno[2,3-c]isoquinoline-2-carboxylate] |
| 74 | 100 | COC(=O)c1sc2c(c1N=CN(C)C)c1ccccc1c(=O)n2-c1ccccc1 [compound 7, Methyl 1-dimethylaminomethyleneamino-4,5-dihydro-5-oxo-4-phenyl-thieno[2,3-c]isoquinoline-2-carboxylate] |
| 1.6 | – | COC(=O)c1sc2c(c1N=CN(C)C)c1ccccc1c(=O)n2-c1ccccc1C [compound 8, Methyl 1-dimethylaminomethyleneamino-4,5-dihydro-4-(2-methylphenyl)-5-oxo-thieno[2,3-c]isoquinoline-2-carboxylate] |
| 1.1 | 100 | COC(=O)c1sc2c(c1N=C1CCCN1C)c1ccccc1c(=O)n2-c1ccccc1C [compound 9, Methyl 4,5-dihydro-4-(2-methylphenyl)-1-(1-methyl-2-pyrrolidinylideneamino)-5-oxo-thieno[2,3-c]isoquinoline-2-carboxylate] |
| 8 | 0.31 | COC(=O)c1sc2c(c1N)-c1ccccc1CN2c1ccccc1 [compound 10, Methyl 1-amino-4,5-dihydro-4-phenyl-thieno[2,3-c]isoquinoline-2-carboxylate] |
